In US12251366B1, “Sulforaphane-cysteine for wound healing in diabetic subjects” (KUWAIT UNIVERSITY, priority 2024, dated 2025):
Entries after “also recorded” stand apart in the source; their conditions may differ.

Legend:
[1] = Muscle weight in diabetic mice (sarcopenia); assay type: in vivo
From the text: (§1) Therapeutic rational was considered for SFN-Cys effectiveness in the following pathological conditions: Sarcopenia-SFN-Cys increased muscle weight in diabetic mice, see FIGS. 4A and 4B; Cardiac fibrosis-SFN-Cys inhibits transforming growth factor beta (TGF-β) expression, see FIG. 4C; Erectile dysfunction-SFN-Cys increased endothelial nitric oxide activity and expression in corpus cavernosum.

full-thickness wounds = test: In vivo wound closure assay, excisional wound healing rat model; set-up: species or system GK rats; conditions: for mitigation of diabetes-related impairment of wound healing compared with VEGF: animal model of (aged) type 2 diabetes; for wound closure / wound healing: rats, topical 1.5 μmol/wound in Pluronic acid every other day, day-0 through day-7
Protocol: Successful wound healing necessitates a series of tightly coordinated and overlapping processes including inflammation, new tissue formation and remodeling. Fibroblasts, in response to growth factors-released mostly by macrophages, migrate to the site of injury, where they proliferate and lay down the extracellular matrix (ECM). Consequently, this facilitates cell migration and tissue reconstruction. The effect of a therapeutic concentration of SFN-Cys (1.5 μM) was investigated on the proliferation of fibroblasts isolated from the granulation tissue of control and diabetic wounds. Similarly, the effect of SFN-Cys on cell migration in the in vitro wound closure assay was also considered. […] Accordingly, in vivo wound closure properties of SFN-Cys were examined using an excisional wound healing rat model. SFN-Cys containing Pluronic acid was topically applied to the wound at a dose of 1.5 μmol concentration and the wound closure area was digitally photographed and quantified. Digital photographs were obtained on day-0 through day-7 of post wounding. […] In this context, the wound healing time-course was faster in SFN-Cys containing Pluronic acid than the Pluronic acid alone (FIG. 3C). […] VEGF is a well-established enhancer of the proliferative phase of healing.
For wounding experiments, 15-18-month female GK rats were anesthetized with intraperitoneal injection of ketamine/xylazine and full-thickness wounds were made in the mid dorsal skin with 8-mm disposable punches. To evaluate the effect of SFN-Cys on wound closure, the drug was dissolved initially with DMSO and then diluted with a 25% Pluronic acid solution at a dose of 1.5 μmol/wound; applied topically to the wound every other day. The wounds were photographed at 0-, 3- or 7-days post-wounding.

[2] = Pain threshold in diabetic rats (diabetic neuropathy); assay type: in vivo; conditions: 5 μmol/rat
From the text: as §1

NQO1 [3] = test: Tissue mRNA expression of NQO1 after SFN-Cys diet; assay type: in vivo; conditions: heart, kidney, liver and skin; SFN-Cys diet 1.5-2.5 μmol/mouse, 21 days
Protocol: Testing the pharmacodynamic and toxicodynamic properties of SFN-Cys dictated the mixing SFN-Cys with a powdered diet. The estimated dose delivered by this diet was 1.5-2.5 μmol/mouse (n=4). The SFN-Cys diet was stored at 4° C. and the feeders were refilled daily for the duration of the study (21 days). Corresponding animals received food without the drug.
For dietary treatment with SFN-Cys, the SFN-Cys was mixed with a powdered diet (7.5 mg of SFN-Cys per kg of food). The estimated dose delivered by this diet was about 1.0-1.5 mg/kg. The diet was stored at 4° C. and the feeders were refilled daily. Control animals received diet alone. Body weights were recorded twice a week and at the termination of the study, blood was drawn in EDTA-containing tubes, plasma was collected by centrifugation and stored at −80° C. until analysis.
(§2) Total RNA from cells or frozen sponge implants was extracted using the Trizol reagent (Invitrogen), and the RNA integrity was verified by agarose gel electrophoresis. […] The amplified sequences were assessed using the ABI 7500 Prism Sequence Detection system machine. The results were expressed as mRNA levels normalized to 18S or GAPDH in each sample.

fibroblasts (CF, DF) = test: In vitro wound healing repair assay (cell migration); assay type: cell-based, rat; conditions: 1.5 μM, 24 hrs
Protocol: Successful wound healing necessitates a series of tightly coordinated and overlapping processes including inflammation, new tissue formation and remodeling. Fibroblasts, in response to growth factors-released mostly by macrophages, migrate to the site of injury, where they proliferate and lay down the extracellular matrix (ECM). Consequently, this facilitates cell migration and tissue reconstruction. The effect of a therapeutic concentration of SFN-Cys (1.5 μM) was investigated on the proliferation of fibroblasts isolated from the granulation tissue of control and diabetic wounds. Similarly, the effect of SFN-Cys on cell migration in the in vitro wound closure assay was also considered. […] Accordingly, in vivo wound closure properties of SFN-Cys were examined using an excisional wound healing rat model. SFN-Cys containing Pluronic acid was topically applied to the wound at a dose of 1.5 μmol concentration and the wound closure area was digitally photographed and quantified. Digital photographs were obtained on day-0 through day-7 of post wounding. […] In this context, the wound healing time-course was faster in SFN-Cys containing Pluronic acid than the Pluronic acid alone (FIG. 3C). […]
Fibroblasts (1×10^5/well) were cultured until confluence. […] The closure of the wounded area was calculated using Image J software (NIH). Data are expressed as a percent of wound closure.

NQO1 [4] = test: mRNA expression of Nrf2 target gene NQO1 in fibroblasts; assay type: cell-based, rat; conditions: diabetic fibroblasts, 1.5 μM
Protocol: To better characterize how SFN-Cys impacts cellular antioxidant levels, the ability of SFN-Cys to regulate the transcription factor nuclear factor erythroid 2-related factor 2 (Nrf2) was assessed, which is a master regulator of the antioxidative stress response that induces the expression of antioxidant proteins such as heme oxygenase (HO) and NAD(P)H dehydrogenase (quinine; NQO1) and key enzymes in the glutathione system. In this context, Nrf2 transcriptional activity was first measured using a vector encoding luciferase driven by the NQO1 promoter. […] Administration of SNF-Cyst at the above indicated concentration (1.5 μM, the lowest effective concentration) ameliorated diabetes-induced suppression of the Nrf2 activity and Nrf2-target genes including HO and NQO1 (FIG. 2A-D).
as §2

IL-6 = test: Cytokine ELISA, LPS-stimulated peritoneal macrophages (IL-6); assay type: cell-based, mouse; conditions: LPS 100 ng/mL 6 hours, pre-treatment 1.5 μM
From the text: This was exemplified in the current study by the ability of SFN-CYS to inhibit lipopolysaccharide (LPS)-induced peritoneal macrophages and bone marrow-derived macrophages to produce tumor necrosis factor-α (TNF-α) and interlukin-6 (IL-6). TNF-α and IL-6 are two of the major inflammatory mediators that contribute to the pathogenesis of low-grade inflammation; a phenomenon which is commonly associated with the diabetic state. […] Pre-treatment with SFN-Cys inhibited the expression of LPS-induced TNF-α and IL-6 protein at a therapeutic dose of 1.5 μM (FIGS. 1A and 1B).
Thioglycollate-elicited mouse peritoneal macrophages were prepared from C57BL (8-10 weeks old) and cultured in RPMI 1640 with 10% (v/v) FCS Bone marrow-derived macrophages were generated in RPMI medium containing M-CSF (10 ng/mL) according to previously published procedure. For cytokine ELISA assay, cells were seeded at 5×10^5 in 12-well plates, whereas for mRNA expression, the cells were seeded at […]. LPS and used at a dose of 100 ng/mL. Similarly. SFN-Cys was used at a concentration of 1.5 umol/L.
For cytokine ELISA, supernatants from cultured macrophages were collected in response to treatment with SFN and SFN-Cys for 6 h. The total TNF-α and TL-6 were measured by enzyme-linked immunosorbent assay (ELISA) using kits (R&D system, USA) according to the manufacturer's protocols.

C[S+]([O-])CCCCNC(=S)SCC(N)C(=O)O (centres unmarked) [SFN-Cys, Sulforaphane-Cysteine]
muscle weight [1]: increased
mitigation of diabetes-related impairment of wound healing compared with VEGF (full-thickness wounds): better than vascular endothelial growth factor (VEGF)
mitigation of diabetes-related impairment of wound healing compared with VEGF (full-thickness wounds; listed as SNF-Cys): more efficacious than vascular endothelial growth factor (VEGF)
wound closure / wound healing (full-thickness wounds): enhanced wound closure; also recorded: ameliorated; also recorded: increases wound healing potential both in control and diabetic subjects
wound closure / wound healing (full-thickness wounds; listed as SNF-Cys): ameliorated
pain threshold [2]: elevated
mRNA expression of NQO1 relative to control (NQO1 [3]): about 3 folds
percentage of increase in cell migration, diabetics versus controls (fibroblasts (CF, DF)): greater in diabetics as compared to controls
cell migration (in vitro wound closure) (fibroblasts (CF, DF); CF and DF): enhanced cell migration not only in control but also in diabetic fibroblasts
mRNA expression of Nrf2 target gene NQO1 (NQO1 [4]): ameliorated
expression of LPS-induced IL-6 protein (IL-6): inhibited
